Source: publication PMC11541474, “Toward New Therapeutics for Visceral Leishmaniasis: Efficacy and Mechanism of Action of Amides Inspired by Gibbilimbol B” (ACS Omega, 2024)

Experiments:
Type in all cases: cell-based, Leishmania (L.) infantum
[1] = system: L. (L.) infantum promastigotes; conditions: 9 at 141.5 μM, 10 at 110.1 μM, after 240 min
Protocol: Figure 5 Evaluation of ROS in promastigotes of L. (L.) infantum treated with compounds 9 (141.5 μM) or 10 (110.1 μM). […]
Measurements of ROS were conducted as previously reported.[48] Briefly, promastigotes were treated with compounds 9 (141.5 μM) or 10 (110.1 μM) in HBSS+Glu at 24 °C using H2DCFDA (Molecular Probes). Fluorescence was measured using a fluorimetric microplate reader (FilterMax F5Multi-Mode, Molecular Devices) with excitation and emission filters at 485 and 520 nm, respectively.[48] Untreated and treated parasites (H2O2 - 40 μM) were used as negative and positive controls, respectively.

[2] = system: L. (L.) infantum promastigotes; assay: parasite protein spectral profiling (MALDI-TOF/MS); conditions: 9 at 141.5 μM, 10 at 110.1 μM, 24 h incubation
Protocol: Finally, the protein variations of Leishmania after treatment with compounds 9 and 10 were investigated using MALDI-TOF/MS analysis.[37],[38] […] Panel I. Promastigotes were incubated with compound 9 (141.5 μM), compound 10 (110.1 μM). Miltefosine was used as positive control whereas untreated parasites were used as a negative control. The peaks observed at m/z 6,153 and m/z 7,187 (blue) allow the identification of the Leishmania subgenus. Increases in peak intensity resulting from the incubation of promastigotes with compound 9 or 10 can be observed at m/z 3,081, 5,542, and 11,079 (red). Panel II. A schematic gel showing mass spectra in the m/z 2,000–20,000 range (B, D, F, H); raw spectra are shown in blue (A, C, E, G), whereas spectra generated after normalization, smoothing, and baseline subtraction are shown in red. (A) and (B), results from untreated promastigotes (negative control); (C) and (D); results from promastigotes incubated with compound 9; (E) and (F), results from promastigotes incubated with compound 10; and (G) and (H) results from promastigotes incubated with miltefosine (standard treatment drug and positive control). MALDI-TOF/MS was used to investigate protein changes in stationary-phase L. (L.) infantum promastigotes that were induced by treatment with compound 9 (141.5 μM), compound 10 (110.1 μM), or the standard drug miltefosine. […]

[3] = system: L. (L.) infantum promastigotes; assay: mitochondrial membrane electric potential, JC-1 flow cytometry; conditions: 9 at 141.5 μM, 10 at 110.1 μM, 4 h exposure
From the text: Mitochondria perform several vital functions and play an essential role in maintaining cellular balance, thus making them a potential target for new drugs against Leishmania spp. Mitochondria are composed of two interconnected membranes and play crucial roles in energy production (ATP), calcium regulation, and the induction of programmed cell death among other processes.[22],[23] Prolonged changes in mitochondrial membrane potential can lead to irreversible cellular damage.[24] The mitochondrial membrane potential of L. (L.) infantum promastigotes (Figure 6) was evaluated by flow cytometry using JC-1.[25] […] The compound carbonyl cyanide m-chlorophenyl […] (CCCP) was used to induce maximum depolarization (positive control), whereas untreated parasites served as a negative control. […] Both alterations may have contributed to the observed mitochondrial dysfunction and might explain the reduction in ROS levels after treatment that was observed. […] JC-1 dye fluorescence was measured by flow cytometry (excitation and emission at 488 and 530 nm, respectively) after incubation. […] Fluorescence is reported as the quotient of channels BL2/BL1.**: p = 0.0001. […] Fluorescence was measured with excitation and emission filters at 488 and 530 nm (BL-1)/574 nm (BL-2), respectively. […]

SMILES | ROS levels compared with negative control (H2DCFDA) [1] | MALDI-TOF/MS protein spectral profile compared with untreated parasites [2] | mitochondrial membrane potential (JC-1) compared with untreated promastigotes [3]
CCCCC(CC)CNC(=O)c1ccc(Cl)cc1 (stereo not drawn) [Compound 9, N-(2-Ethylhexyl)-4-chlorobenzamide] | significantly reduced ROS levels | increased the intensity of the spectral peaks | significant depolarization of the mitochondrial membrane
CCCCC(CC)CNC(=O)c1ccc([N+](=O)[O-])cc1 (stereo not drawn) [Compound 10, N-(2-Ethylhexyl)-4-nitrobenzamide] | significantly reduced ROS levels | increased the intensity of the spectral peaks | not statistically significant
